From patent US20230172201A1, “Use of 4-Phenylbutyric Acid and/or 3-Phenylbutyric Acid and/or 2-Phenylbutyric Acid in Preventing and Treating Cryptogamic Diseases” (Institut National de Recherche Pour L'Agriculture, …, priority 2020, published 2023)

System: Botrytis cinerea (BMM strain)
Assay: Mycelial development in liquid medium, absorbance at 600 nm (nephelometry)
Assay type: cell-based
Details: Botrytis cinerea, 96 h; 1 mM; incubation for 4 days; Example 4; read-out: degree of inhibition

CCC(C(=O)O)c1ccccc1 (stereo not shown) [2-PBA, 2-Phenylbutyric acid]
inhibition at 1000 µM: ~70%
